# Assay results: US5869456A, “Use of glutathione diesters” (priority 1995, dated 1999)
# Where two headings read alike, the source gives them in different places.
# Columns and labels:
# mice [1] = conditions: earlier evidence / earlier patents; cited from earlier work
# [2] = test system: GSH diester α-esterase activity, rabbit plasma
# [3] = test system: Human Peripheral Blood Mononuclear Cells; conditions: 6 ml whole blood + 3 ml 60 mM thiol, 30 min, 37° C.; PBM
# Procedure: (§1) T Cell and PBM Lysates: 120 μl 4 mM DTPA, total 360 μl sample/4.31% SSA (containing 0.5 mM DTPA), 100 μl Tris, 5μ mBBr; 20 min. in the dark, 15 μl glacial acetic acid.
# (§2) HPLC Analysis of Cellular Thiols. Samples were chromatographed on an Altex Ultrasphere ODS reverse phase column (5μ; 4.6 mm×25 cm), using one of three gradients: (1) Buffer A: 12.8% MeOH, 0.25% acetic acid, 87.75% H2 O, pH 3.9. (2) Buffer B: 90.0% MeOH, 0.25% acetic acid, 9.75% H2 O (no pH Adjustment). (3) Gradient 1: Initial, 100% A, linear gradient to 50% B at 25 min., linear gradient to 100% B at 35 min., wash with 100% B to 39.5 min.; step to 100% A at 40 min.; equilibration with 100% A to 48 min. Gradient 2: Initial, 100% A, linear gradient to 75% B at 25 min., remainder identical to Gradient 1. Gradient 3: Initial, 100% A, linear gradient to 65% A, 35% B at 25 minutes, remainder identical to gradient 1. Flow rates were 1 ml/min.
# 6 mls. whole blood (see Table 1) was mixed with 3 ml of 60 mM GSH, GSH-ME or GSH-DE at pH 7. After 30 min incubation at 37° C., PBM were isolated by Ficoll-Hypaque density gradient centrifugation. Cells were washed with 14 ml PBS (2-3) and lysed with 4.31% SSA/0.5 mM DTPA (400 μl). After centrifugation, the supernatants were derivatized for HPLC analysis.
# [4] = test system: GSH diester α-esterase activity, human blood plasma
# [5] = test system: Hamsters (liver, kidney, blood plasma); test: Thiol levels in hamsters treated with GSH esters; type: in vivo, Syrian hamster
# Procedure: Plasma Samples: 190 μl 50 mM DTPA, total 70 μ1 sample plus 3.33% SSA, 17.5 μl Tris, 10 μl of mBBr; after 20 min in the dark, 7.5 μl glacial acetic acid. Reduced Plasma Samples: 170μ 50 mM DTPA, 20 μl 16 mM DTT in 50 mM DTPA, remainder as above; the samples were agitated at room temperature for 20 min. After reduction, mBBr was added and the derivatization proceeds as above.
# Other Animal Tissues. 385 μl 50 mM DTPA, 140 μl sample. 20 μl mBBr, 40 μl Tris; 20 minutes in the dark, 15 μl glacial acetic acid. Standards for all sample types were prepared using identical derivatization procedures.
# Recovery of Tissues from Syrian Hamsters. Animals were anesthetized by i.p. administration of xylazine and ketamine, decapitated, and exsanguinated. Blood was mixed with 50 μl EDTA (0.5M, pH 7). Plasma was recovered by centrifugation; one-half vol. 10% SSA/0.5 mM DTPA was added. Liver: one lobe was removed, rinsed with H2 O, blotted, weighed, and homogenized in 5% SSA (0.5 Mm DTPA) (5 vol/g tissue). Kidney: one kidney was removed and decapsulated and then processed as with liver.
# BSO (6 mmol/kg) was given I.P. fasted animals 2 hours prior to giving GSH, GSH-ME, or GSH-DE (5 mmol/kg); values were determined 1 hour later. […] Each value represents determinations ±S.D. on 3-4 animals.
# [6] = test system: esterase activity, mouse blood plasma
# [7] = test system: Human Peripheral Blood Mononuclear Cells; conditions: for Thiol Levels, Total / Thiol Levels, thiol found GSH / Thiol Levels, thiol found GSH-DE / Thiol Levels, thiol found GSH-ME: isolated PBM, 0.3 ml 80 mM thiol to 0.9 ml cells, 37° C.
# Procedure: as §1, §2
# PBM were isolated from whole blood (see Tables 1 and 3) washed with PBS, and re-suspended in PBS. To 0.9 ml cell suspension (5-8×10^6 cells) was added 0.3 ml of 80 mM GSH, GSH-ME or GSH-DE at pH 7. After incubation at 37° C. for the indicated times, the cells were recovered by centrifugation, washed with 14 ml PBS (2×), and lysed by addition of 4.31% of SSA/0.5 mM DTPA and 2-3 freeze-thaw cycles. After centrifugation, supernatants were derivatized for HPLC analysis.
# [8] = test system: GSH diester α-esterase activity, sheep plasma
# hamsters = conditions: given to hamsters, present studies
# [9] = test system: GSH diester α-esterase activity, guinea pig plasma
# [10] = test system: esterase activity, rat blood plasma
# Human Erythrocytes [11] = conditions: for Thiol Levels, Total / Thiol Levels, thiol found GSH / Thiol Levels, thiol found GSH-DE / Thiol Levels, thiol found GSH-ME: erythrocyte suspension, 80 mM thiol added (one-third vol), 37° C.
# Procedure: Analysis of Erythrocyte Thiol by DTNB. Cell supernatant (40 μl) was added to 1 ml of 6 mM DTNB (in 143 mM phosphate buffer, pH 7.5, containing 6.3 mM EDTA). The change in absorbance at 412 nm after 1 min was converted to a value for total thiol using a GSH standard curve. The GSH standard were prepared in a 1:2:2 mixture of PBS: 0.435M acetic acid: 10% SSA (containing 2 mM EDTA) ("RBC Mix").
# (§3) Derivatization of Cell Thiols for HPLC Analysis. Derivatization mixtures are as follows: Erythrocyte Lysates: 155 μl 50 mM DTPA (pH 7), 110 μl 3.33% SSA, total 180 μl cell supernatant plus "RBC Mix", 10 μl 0.1M mBBr (in CH3 CN), 100 μl of 2M Tris·HCl (pH 9 at room temperature). The samples were placed in the dark for 20-30 minutes at room temperature; the reaction was quenched with 90 μl of glacial acetic acid. Reduced Erythocyte Lysates. 155 μl mM DTT in 50 mM DTPA (pH 7), SSA, sample, and "RBC Mix" as above Tris was added and the samples were agitated at room temperature for 25 min. 20 μl Tris and 10 μl mBBr were added; the derivatization proceeds as above.
# as §2
# Whole blood was collected with EDTA or DTPA (0.5M, pH 7) as anticoagulant (0.4 ml/8-12 ml blood). Plasma and buffy coat were removed after centrifugation and the erythrocytes washed 3 times with 1-2 vol PBS/5 mM DTPA or EDTA. Packed erythrocytes were suspended in one-half vol. PBS. To each suspension was one-third vol. GSH, GSH-ME or GSH-DE (80 mM, pH 7). After incubation at 37° C. for the indicated times, aliquots were removed, washed (3-4×) with PBS/EDTA/DTPA, lysed with one volume 0.435M acetic acid, protein-precipitated with one volume 10% SSA/2 mM DTPA, and centrifuged to remove cell debris. Supernatants were derivatized for HPLC analysis as described in Materials and Methods.
# mice [12] = conditions: given to mice, present studies
# Human Erythrocytes [13] = conditions: whole blood + one-half volume 120 mM thiol, 30 minutes, 37° C.
# Procedure: as §3, §2
# Whole blood (see Table 1) was mixed with one-half volume of 120 mM GSH, GSH-ME, or GSH-DE at pH 7. The samples were incubated for 30 minutes at 37° C. and then centrifuged. After removal of plasma and buffy coat, the erythrocytes were washed and processed as described in Table 1.
# [14] = test system: GSH diester α-esterase activity, hamster plasma
compound,measurement,setting,value
COC(=O)CNC(=O)C(CS)NC(=O)CCC(N)C(=O)OC (centres unmarked) [GSH dimethyl ester],toxicity,mice [1],may be toxic
"CCOC(=O)CNC(=O)[C@H](CS)NC(=O)CC[C@H](N)C(=O)OCC [GSH-DE, glutathione diethyl ester]",GSH diester α-esterase activity in plasma,[2],also lack this esterase
same,"Thiol Levels Found, GSH",[3],4.24 nmol/10^6 cells
same,"Thiol Levels Found, GSH-DE",[3],0.501 nmol/10^6 cells
same,"Thiol Levels Found, GSH-ME",[3],10.5 nmol/10^6 cells
same,"Thiol Levels Found, Total",[3],15.2 nmol/10^6 cells
same,splitting of GSH-DE to GSH-ME in plasma (GSH diester α-esterase activity),[4],not split to GSH-ME in plasma
same,splitting of GSH-DE to GSH-ME in plasma (GSH diester α-esterase activity),[4]; listed as GSH diethyl ester,does not have detectable GSH diester α-esterase activity
same,raising GSH levels in liver,"[5]; hamster, comparison in words (Table 6)",more effective than GSH-ME
same,Blood plasma levels of GSH,"[5]; hamsters, 5 mmol/kg after BSO, 1 hour later",not affected
same,conversion of GSH diethyl ester to GSH mono (glycyl) ester in blood plasma,[6],split rapidly to GSH-ME
same,conversion of GSH diethyl ester to GSH mono (glycyl) ester in blood plasma,[6]; listed as GSH diethyl ester,rapidly converted to GSH mono (glycyl) ester
same,total thiols in human PBM,"[7]; in 90 min, text summary of Table 4",33 mM
same,"Thiol Levels, Total","[7]; 7 min, donor A",12.1 ± 1.3 nmol/10^6 cells
same,"Thiol Levels, thiol found GSH","[7]; 7 min, donor A",3.64 ± 0.32 nmol/10^6 cells
same,"Thiol Levels, thiol found GSH-DE","[7]; 7 min, donor A",0.65 ± 0.016 nmol/10^6 cells
same,"Thiol Levels, thiol found GSH-ME","[7]; 7 min, donor A",8.34 ± 0.95 nmol/10^6 cells
same,"Thiol Levels, Total","[7]; 45 min, donor B",17.2 ± 1.4 nmol/10^6 cells
same,"Thiol Levels, thiol found GSH","[7]; 45 min, donor B",2.82 ± 0.25 nmol/10^6 cells
same,"Thiol Levels, thiol found GSH-DE","[7]; 45 min, donor B",0.320 ± 0.101 nmol/10^6 cells
same,"Thiol Levels, thiol found GSH-ME","[7]; 45 min, donor B",14.1 ± 1.0 nmol/10^6 cells
same,"Thiol Levels, Total","[7]; 90 min, donor A",33.2 ± 6.3 nmol/10^6 cells
same,"Thiol Levels, thiol found GSH","[7]; 90 min, donor A",5.58 ± 1.05 nmol/10^6 cells
same,"Thiol Levels, thiol found GSH-DE","[7]; 90 min, donor A",0.750 ± 0.141 nmol/10^6 cells
same,"Thiol Levels, thiol found GSH-ME","[7]; 90 min, donor A",26.9 ± 5.1 nmol/10^6 cells
same,GSH diester α-esterase activity in plasma,[8],also lack this esterase
same,toxicity,hamsters,toxicity was not observed
same,GSH diester α-esterase activity in plasma,[9],also lack this esterase
same,conversion of GSH diethyl ester to GSH mono (glycyl) ester in blood plasma,[10],split rapidly to GSH-ME
same,conversion of GSH diethyl ester to GSH mono (glycyl) ester in blood plasma,[10]; listed as GSH diethyl ester,rapidly converted to GSH mono (glycyl) ester
same,"Thiol Levels, Total",Human Erythrocytes [11]; 7 min,9.99 ± 2.10 mM
same,"Thiol Levels, thiol found GSH",Human Erythrocytes [11]; 7 min,1.74 ± 0.22 mM
same,"Thiol Levels, thiol found GSH-DE",Human Erythrocytes [11]; 7 min,4.19 ± 1.47 mM
same,"Thiol Levels, thiol found GSH-ME",Human Erythrocytes [11]; 7 min,4.01 ± 0.41 mM
same,"Thiol Levels, Total",Human Erythrocytes [11]; 45 min,14.5 ± 2.0 mM
same,"Thiol Levels, thiol found GSH",Human Erythrocytes [11]; 45 min,1.77 ± 0.22 mM
same,"Thiol Levels, thiol found GSH-DE",Human Erythrocytes [11]; 45 min,3.61 ± 1.29 mM
same,"Thiol Levels, thiol found GSH-ME",Human Erythrocytes [11]; 45 min,9.15 ± 0.49 mM
same,"Thiol Levels, Total",Human Erythrocytes [11]; 90 min,20.1 ± 2.8 mM
same,"Thiol Levels, thiol found GSH",Human Erythrocytes [11]; 90 min,2.02 ± 0.30 mM
same,"Thiol Levels, thiol found GSH-DE",Human Erythrocytes [11]; 90 min,3.51 ± 1.28 mM
same,"Thiol Levels, thiol found GSH-ME",Human Erythrocytes [11]; 90 min,14.6 ± 1.2 mM
same,total RBC thiol levels,Human Erythrocytes [11]; summary of Table 1,about 20 mM
same,toxicity,mice [12],toxicity was not observed
same,"Thiol Levels Found, GSH",Human Erythrocytes [13],2.24 ± 0.45 mM
same,"Thiol Levels Found, GSH-DE",Human Erythrocytes [13],8.61 ± 0.31 mM
same,"Thiol Levels Found, GSH-ME",Human Erythrocytes [13],6.26 ± 0.50 mM
same,"Thiol Levels Found, Total",Human Erythrocytes [13],17.1 ± 1.24 mM
same,splitting of GSH-DE to GSH-ME in plasma (GSH diester α-esterase activity),[14],not split to GSH-ME in plasma
same,splitting of GSH-DE to GSH-ME in plasma (GSH diester α-esterase activity),[14]; listed as GSH diethyl ester,lacks detectable GSH diester α-esterase activity
